Measured values taken from paper PMC4833353 (PLoS Pathogens, 2016).
pKd: −log10 of the molar value.

What was measured:
ET CTB [1] = target: T1, ET CTB (Vibrio cholerae serotype O1, UniProt P01556); type: binding
ET CTB [2] = target: T1, ET CTB; test: biochemical; type: binding; settings: for pKd: K D

T1 sequence (P01556 22-124 limits assumed): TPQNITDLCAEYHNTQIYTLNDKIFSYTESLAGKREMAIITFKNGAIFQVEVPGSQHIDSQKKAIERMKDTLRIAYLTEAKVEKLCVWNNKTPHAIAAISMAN

Compound	binding of ET CTB to GM1-coated wells after preincubation with ligand (ET CTB [1])	pKd (ET CTB [2])	binding to CTB (ET CTB [2])	binding affinity (in words) (ET CTB [2])
CC(=O)N[C@H]1[C@@H](O[C@H]2[C@@H](O)[C@@H](CO)O[C@@H](O[C@H]3[C@H](O[C@@H]4O[C@@H](C)[C@@H](O)[C@@H](O)[C@@H]4O)[C@@H](O)[C@H](O)O[C@@H]3CO)[C@@H]2O[C@@H]2O[C@@H](C)[C@@H](O)[C@@H](O)[C@@H]2O)O[C@H](CO)[C@H](O)[C@@H]1O [A-penta-HMO, GalNAcα3[Fucα2]Galβ4[Fucα3]Glc]	interfered with binding of CTB to GM1	2.34		
GalNAcα3[Fucα2]Galβ3[Fucα4]GlcNAc			very weak to no binding	
CC(=O)N[C@@H]1[C@@H](O[C@@H]2O[C@@H](C)[C@@H](O)[C@@H](O)[C@@H]2O)[C@H](O[C@@H]2O[C@H](CO)[C@H](O)[C@H](O[C@H]3O[C@H](CO)[C@H](O)[C@H](O)[C@H]3NC(C)=O)[C@H]2O[C@@H]2O[C@@H](C)[C@@H](O)[C@@H](O)[C@@H]2O)[C@@H](CO)O[C@H]1O [A-penta-BGA, GalNAcα3[Fucα2]Galβ4[Fucα3]GlcNAc]		< 1.52		binding very weakly
